Assay results: patent US9303057B2, “Methods and reagents for analyzing riboswitches using FRET” (CORNELL UNIVERSITY, priority 2011, dated 2016)

Assays:
SAM-II riboswitch [1] = assay: smFRET imaging of pseudoknot formation of surface-immobilized Cy3/Cy5-labeled riboswitch; format: binding, Sargasso Sea metagenome
Method: To reveal the underlying dynamics of SAM-II pseudoknot formation, single-molecule FRET (smFRET) (Aleman 2008; Lemay 2006; Brenner 2010) investigations were performed using the same labeling strategy as in Example 2 (i.e., A14^Cy3U and G52^Cy5U). To enable surface immobilization of the SAM-II riboswitch within a passivated microfluidic device and extended observation periods, a 5′-biotin moiety was included in the design (FIG. 2, FIG. 3).
smFRET data were acquired using a prism-based total internal reflection (TIR) microscope, where the biotinylated SAM-II riboswitch was surface immobilized within PEG-passivated, strepatividin-coated quartz microfluidic devices (Munro 2007). The Cy3 fluorophore was directly illuminated under 1.5 kW/cm^2 intensity at 532 nm (Laser Quantum). Photons emitted from both Cy3 and Cy5 were collected using a 1.2 NA 60× Plan-APO water-immersion objective (Nikon), where optical treatments were used to spatially separate Cy3 and Cy5 frequencies onto two, synchronized EMCCD devices (Evolve 512, Photometrics). Fluorescence data were acquired using MetaMorph acquisition software (Universal Imaging Corporation) at a rate of 66.7 frames per second (15 ms integration). Fluorescence trajectories were selected from the movie files for analysis using automated image analysis software coded in Matlab (The MathWorks). Fluorescence trajectories were selected based on the following criteria: a single catastrophic photobleaching event, at least 6:1 signal-to-background noise ratio (SNR) calculated from the total fluorescence intensity, and a FRET lifetime of at least 30 frames (450 ms) in any FRET state ≧0.15. smFRET trajectories were calculated from the acquired fluorescence data using the formula FRET=ICy5/(ICy3+ICy5), where ICy3 and ICy5 represent the Cy3 and Cy5 fluorescence intensities, respectively. Equilibrium smFRET experiments were performed in 50 mM KMOPS, 100 mM KCl, pH 7.5 buffer in the presence of an optimized oxygen scavenging and triplet state quenching cocktail in the presence of an oxygen scavenging environment (1 unit protocatchuate-3,4-dioxygenase, 2 mM protocatechuic acid; 1 mM Trolox, 1 mM cyclooctatetraene, 1 mM nitrobenzyl-alcohol) (Dave 2009). Concentrations of MgCl2 and SAM were as specified in the figure captions. […]
As previously described, the emission intensities of both Cy3 and Cy5 fluorophores were tracked simultaneously for individual surface-immobilized molecules using a wide-field, prism-based total internal reflection configuration, with a single-frequency light source (532 nm) (Munro 2007). […] The dynamic behaviors of individual molecules were assessed using hidden Markov modeling (HMM) procedures, and ensemble information was obtained by assembling single-molecule FRET trajectories into population FRET histograms. […]

SAM-II riboswitch [2] = assay: Bulk FRET detection of pseudoknot formation (steady-state fluorescence of Cy3/Cy5-labeled riboswitch); format: binding, Sargasso Sea metagenome
Method: FIG. 2 illustrates the construction of a Cy3/Cy5-labeled SAM-II construct sensitive to pseudoknot formation. (a) The strategy for synthesis, labeling and enzymatic ligation is shown, with the chemical structures of fluorophores and linkers provided in FIG. 3. (b) Anion-exchange (AE) HPLC trace of enzymatic ligation using T4 DNA ligase and a DNA splint at the start (0 h) and after completion (9 h). The product (retention time=37.3 min) was purified by AE-HPLC. (c) LC-ESI mass spectrum of purified ligation product. (d) Fluorescence emission response of the acceptor dye in the Cy5/Cy3 labeled SAM-II construct upon consecutive Mg^2+ and SAM addition under conditions where cRNA=0.5 μM, cSAM=5.0 μM, cmg=2.0 mM, 50 mM KMOPS, 100 mM KCl, 20° C., pH 7.5; λex=540 nm, λem=665 nm.
All experiments were measured on a Cary Eclipse spectrometer (Varian, Palo Alto, USA) equipped with a peltier block, a magnetic stirring device, and a RX2000 stopped-flow apparatus (Applied Photophysics Ltd., Leatherhead, UK).
Based on the reported structure of the SAM-II riboswitch (Gilbert 2008), an acceptor (Cy5) fluorophore was attached to the non-conserved nucleoside at position 14, and a donor (Cy3) fluorophore at the unpaired terminal residue at position 52 (FIG. 1a). […]

Row | Structure (SMILES) | increase of the absolute value of the low-FRET state (SAM-II riboswitch [1]; 2 mM Mg2+, no SAM) | stabilization of the high-FRET state (SAM-II riboswitch [1]; 2 mM Mg2+, no SAM) | observed rate of increase of acceptor fluorescence emission (single exponential) (SAM-II riboswitch [2]; 6 equivalents of SAM, Cy3/Cy5-labeled riboswitch, cRNA=0.5 μM, 2.0 mM Mg2+, 20° C., pH 7.5) | fluorescence emission from the acceptor fluorophore achieved via FRET (SAM-II riboswitch [2]; addition of 10 equivalents of SAM) | average dwell time in the high-FRET state (SAM-II riboswitch [1]; 2 mM Mg2+ and 10 μM SAM) | stabilization of the high-FRET state (SAM-II riboswitch [1]; 2 mM Mg2+ and 10 μM SAM)
1 | [Cl-].[Cl-].[Mg+2] [Mg^2+] | 0.08 | approximately 10 fold |  |  |  | 
2 | C[S+](CC[C@H](N)C(=O)O)C[C@H]1O[C@@H](n2cnc3c(N)ncnc32)[C@H](O)[C@@H]1O (stereo partly drawn) [SAM, S-adenosylmethionine] |  |  | 1.19±0.06×10^−2 s^−1 | dramatically increase in intensity | approximately one | ~10 fold
